Measured values from the supplement of paper PMC10307832.

Columns and labels:
Assay in all cases: relative viability (nuclei count vs DMSO), 5 days (fraction); higher = more cells survive
[1] = compound: C1CC2=C(C1)C=C(C=C2)OC3=NC(=C4C(=N3)N(C=N4)CC5=CC=C(C=C5)C6=CC=CC=C6)N[C@@H](CC7=CC=CC=C7)CO [QS11] + C[C@@H](Oc1cc(-c2cnn(C3CCNCC3)c2)cnc1N)c1c(Cl)ccc(F)c1Cl [Crizotinib] (partner 1 µM)
Procedure, shortened: (§1)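 Values are medians from duplicate plates. Each reflects relative viability, defined as the nuclei count of treated wells over that of vehicle wells. Lung cancer cell lines in 1536-well plates were pin-tool dosed one day after seeding with one drug alone or with a fixed anchor-drug dose plus five library-drug doses (not always all listed) in √10 steps, then fixed, stained and imaged at 4× after 5 days.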

[2] = compound: C1CC2=C(C1)C=C(C=C2)OC3=NC(=C4C(=N3)N(C=N4)CC5=CC=C(C=C5)C6=CC=CC=C6)N[C@@H](CC7=CC=CC=C7)CO [QS11] + CC(=O)Nc1cccc(-n2c(=O)n(C3CC3)c(=O)c3c(Nc4ccc(I)cc4F)n(C)c(=O)c(C)c32)c1 [Trametinib] (partner 0.02 µM)
Procedure, shortened: as §1

[3] = compound: C1CC2=C(C1)C=C(C=C2)OC3=NC(=C4C(=N3)N(C=N4)CC5=CC=C(C=C5)C6=CC=CC=C6)N[C@@H](CC7=CC=CC=C7)CO [QS11] + Nc1nc2[nH]cc(CCc3ccc(C(=O)N[C@@H](CCC(=O)O)C(=O)O)cc3)c2c(=O)[nH]1 [Pemetrexed] (partner 0.2 µM)
Procedure, shortened: as §1

[4] = compound: CC1=C(C=C(C=C1)NC(=O)C2=CC(=CC=C2)C(C)(C)C#N)NC3=CC4=C(C=C3)N=CN(C4=O)C [AZ628] + CC1(C)CCC(c2ccc(Cl)cc2)=C(CN2CCN(c3ccc(C(=O)NS(=O)(=O)c4ccc(N[C@H](CCN5CCOCC5)CSc5ccccc5)c(S(=O)(=O)C(F)(F)F)c4)cc3)CC2)C1 [Navitoclax] (partner 0.5 µM)
Procedure, shortened: as §1

[5] = compound: C[As](C)SC[C@H](NC(=O)CC[C@H](N)C(=O)O)C(=O)NCC(=O)O [Darinaparsin] + CC(C)C[C@H](NC(=O)[C@H](Cc1ccccc1)NC(=O)c1cnccn1)B(O)O [Bortezomib] (partner 0.002 µM)
Procedure, shortened: as §1

LCLC-97TM1 showed a relative viability ([1]; first compound 0.08 µM) of 0.275, a relative viability ([1]; first compound 0.253 µM) of 0.351 and a relative viability ([1]; first compound 0.8 µM) of 0.392. The relative viability ([1]; first compound 2.53 µM) was 0.403, the relative viability ([1]; first compound 8 µM) was 0.355 and the relative viability ([2]; first compound 0.253 µM) was 0.213. It also gave a relative viability ([2]; first compound 2.53 µM) of 0.223, a relative viability ([2]; first compound 8 µM) of 0.277 and a relative viability ([3]; first compound 0.253 µM) of 0.167. For the same cell line, the relative viability ([3]; first compound 2.53 µM) was 0.182, the relative viability ([3]; first compound 8 µM) was 0.202 and the relative viability ([4]; first compound 0.08 µM) was 0.86. For the same cell line, the relative viability ([4]; first compound 0.253 µM) was 0.436, the relative viability ([4]; first compound 0.8 µM) was 0.48 and the relative viability ([4]; first compound 2.53 µM) was 0.437. The relative viability ([4]; first compound 8 µM) was 0.255, the relative viability ([5]; first compound 0.08 µM) was 0.765 and the relative viability ([5]; first compound 0.8 µM) was 0.513. The relative viability ([5]; first compound 2.53 µM) was 0.416 and the relative viability ([5]; first compound 8 µM) was 0.481.
